Measurements from US20210000792A1, “METHODS FOR REDUCING OR PREVENTING CARDIOVASCULAR EVENTS IN PATIENTS WITH TYPE II DIABETES MELLITUS” (Janssen Pharmaceutica NV, priority 2017, published 2021).

Key:
[1] = tested on: men and women with type 2 diabetes and history or high risk of cardiovascular disease; assay: CANVAS clinical trial, canagliflozin 300 mg or 100 mg versus placebo; format: in vivo, human
From the text: (§1) Two clinical trials were completed to assess the cardiovascular safety and efficacy of canagliflozin, and how any potential benefits might balance against known risks. The complete protocols for said trials, name CANVAS and CANVAS-R, which protocols are each incorporated in their entirety herein, may be found on www.clinicaltrials.gov (more specifically at the following urls: https://clinicaltrials.gov/ct2/show/NCT01032629?term=canvas&rank=1 and https://clinicaltrials.gov/ct2/show/NCT01989754?term=canvas-r&rank=1, respectively).
(§2) All potential participants completed a 2-week, single-blind, placebo run-in period. Randomization was done centrally through an interactive web response system using a computer-generated randomization schedule prepared by the study sponsor using randomly permuted blocks. Participants in CANVAS were randomly assigned in a 1:1:1 ratio to canagliflozin 300 mg, canagliflozin 100 mg, or matching placebo, and participants in CANVAS-R were randomly assigned in a 1:1 ratio to canagliflozin or matching placebo administered at an initial dose of 100 mg daily with optional up-titration to 300 mg from week 13. Participants and all study staff were masked to individual treatment allocations until the completion of the study. Use of other background therapy for glycemic management and other risk factor control was according to best practice instituted in line with local guidelines including Renin Angiotensin System (RAS) blockade.
(§3) Post-randomization, face-to-face follow-up was scheduled for 3 visits in the first year and at 6-month intervals thereafter, with alternating telephone follow-up between face-to-face assessments. Every follow-up included inquiry about primary and secondary outcome events and serious adverse events. Urinary albumin:creatinine ratio was measured every 26 weeks in CANVAS-R, and at Week 12 and then annually in CANVAS. Serum creatinine measurement with estimation of glomerular filtration rate (eGFR) was performed at least every 26 weeks in both trials. Individuals that prematurely discontinued study treatment continued scheduled follow-up wherever possible, with extensive efforts made to obtain full outcome data for all during the final follow-up window that spanned November 2016 to February 2017.
(§4) The primary outcome was a composite of cardiovascular mortality, nonfatal myocardial infarction, or nonfatal stroke. Secondary outcomes were total mortality; cardiovascular mortality; progression of albuminuria; and the composite of cardiovascular mortality and hospitalization for heart failure. Progression of albuminuria grade was defined as a more then 30% increase in albuminuria and a switch from either normoalbuminuria to microalbuminuria or macroalbuminuria, or from microalbuminuria to macroalbuminuria. In the event that sequential testing was not significant for all then remaining outcomes were scheduled for assessment as exploratory variables in the integrated dataset.
(§5) Evaluation of total hospitalizations was also prespecified.
(§6) All major cardiovascular events, renal outcomes and deaths, plus selected safety outcomes were ratified by Endpoint Adjudication Committees. Intermediate markers of cardiovascular risk and requirement for antihyperglycemic agents were assessed to help understand the observed effects on cardiovascular and renal outcomes. Analyses of safety were of adverse events coded using the latest version of the MedDRA Dictionary. For bone fracture, the primary prespecified analysis was for low-trauma fracture events but secondary analysis of all fractures was also done. Amputations were assessed overall but numbers of cases above and below the ankle were also reported.
(§7) The primary hypothesis test was of noninferiority for the hazard ratio (HR) for the primary outcome at the margin of 1.3 for all canagliflozin versus placebo using the full integrated dataset and the intent to treat approach. […]

[2] = tested on: men and women with type 2 diabetes and history or high risk of cardiovascular disease; assay: CANVAS-R clinical trial, canagliflozin 100 mg with optional up-titration to 300 mg versus placebo; format: in vivo, human
From the text: as §1, §2, §3, §4, §5, §6, §7

[3] = vs placebo, listed as canagliflozin

Cc1ccc([C@@H]2O[C@H](CO)[C@@H](O)[C@H](O)[C@H]2O)cc1Cc1ccc(-c2ccc(F)cc2)s1 [Canagliflozin, canagliflozin] was tested, and the “Cardiovascular mortality, nonfatal myocardial infarction, or nonfatal stroke, n/N” value ([1]; canagliflozin group) was 425/2888, the “Hospitalization for heart failure, n/N” value ([1]; canagliflozin group) was 85/2888 and the “Nonfatal myocardial infarction, n/N” value ([1]; canagliflozin group) was 152/2888. The “Nonfatal stroke, n/N” value ([1]; canagliflozin group) was 106/2888, the “Progression of albuminuria, n/N” value ([1]; canagliflozin group) was 895/2655 and the “Regression of albuminuria, n/N” value ([1]; canagliflozin group) was 434/786. For the same compound, the “Total mortality, n/N” value ([1]; canagliflozin group) was 301/2888, the “40% reduction in eGFR, RRT, or renal death, hazard ratio (95% confidence interval)” value ([1]; vs placebo) was 0.56 (0.41-0.75) and the “40% reduction in eGFR, RRT, renal death or macroalbuminuria, hazard ratio (95% confidence interval)” value ([1]; vs placebo) was 0.64 (0.54-0.76). For the same compound, the “40% reduction in eGFR, RRT, renal or CV death, hazard ratio (95% confidence interval)” value ([1]; vs placebo) was 0.74 (0.62-0.89), the “Cardiovascular mortality or hospitalization for heart failure, hazard ratio (95% confidence interval)” value ([1]; vs placebo) was 0.82 (0.67-0.99) and the “Cardiovascular mortality, hazard ratio (95% confidence interval)” value ([1]; vs placebo) was 0.88 (0.70-1.10). For the same compound, the “Cardiovascular mortality, nonfatal myocardial infarction, or nonfatal stroke, hazard ratio (95% confidence interval)” value ([1]; vs placebo) was 0.88 (0.75-1.03), the “Hospitalization for heart failure, hazard ratio (95% confidence interval)” value ([1]; vs placebo) was 0.77 (0.55-1.08) and the “Nonfatal myocardial infarction, hazard ratio (95% confidence interval)” value ([1]; vs placebo) was 0.85 (0.65-1.11). The “Nonfatal stroke, hazard ratio (95% confidence interval)” value ([1]; vs placebo) was 0.97 (0.70-1.35), the “Progression of albuminuria, hazard ratio (95% confidence interval)” value ([1]; vs placebo) was 0.80 (0.72-0.90) and the “Regression of albuminuria, hazard ratio (95% confidence interval)” value ([1]; vs placebo) was 1.56 (1.30-1.87). For the same compound, the “Total mortality, hazard ratio (95% confidence interval)” value ([1]; vs placebo) was 0.84 (0.70-1.01), the “Progression of albuminuria, hazard ratio (95% confidence interval)” value [1, 3] was 0.80 and the “Albumin:creatinine ratio progression, events per 1000 patient-years” value [2] was 99.80 per 1000 patient-years. The “Cardiovascular death or hospitalization for heart failure, events per 1000 patient-years” value [2] was 15.85 per 1000 patient-years, the “Cardiovascular death, events per 1000 patient-years” value [2] was 10.06 per 1000 patient-years and the “40% reduction in eGFR, RRT, or renal death, n/N” value ([2]; canagliflozin group) was 33/2907. The “40% reduction in eGFR, RRT, renal death or macroalbuminuria, n/N” value ([2]; canagliflozin group) was 112/2907, the “40% reduction in eGFR, RRT, renal or CV death, n/N” value ([2]; canagliflozin group) was 93/2907 and the “Cardiovascular mortality or hospitalization for heart failure, n/N” value ([2]; canagliflozin group) was 95/2907. For the same compound, the “Cardiovascular mortality, n/N” value ([2]; canagliflozin group) was 61/2907, the “Cardiovascular mortality, nonfatal myocardial infarction, or nonfatal stroke, n/N” value ([2]; canagliflozin group) was 160/2907 and the “Hospitalization for heart failure, n/N” value ([2]; canagliflozin group) was 38/2907. For the same compound, the “Nonfatal myocardial infarction, n/N” value ([2]; canagliflozin group) was 63/2907, the “Nonfatal stroke, n/N” value ([2]; canagliflozin group) was 52/2907 and the “Progression of albuminuria, n/N” value ([2]; canagliflozin group) was 446/2541. The “Regression of albuminuria, n/N” value ([2]; canagliflozin group) was 451/893, the “Total mortality, n/N” value ([2]; canagliflozin group) was 99/2907 and the “40% reduction in eGFR, RRT, or renal death, hazard ratio (95% confidence interval)” value ([2]; vs placebo) was 0.71 (0.45-1.11). The “40% reduction in eGFR, RRT, renal death or macroalbuminuria, hazard ratio (95% confidence interval)” value ([2]; vs placebo) was 0.48 (0.38-0.60), the “40% reduction in eGFR, RRT, renal or CV death, hazard ratio (95% confidence interval)” value ([2]; vs placebo) was 0.82 (0.62-1.08) and the “Cardiovascular mortality or hospitalization for heart failure, hazard ratio (95% confidence interval)” value ([2]; vs placebo) was 0.72 (0.55-0.94). For the same compound, the “Cardiovascular mortality, hazard ratio (95% confidence interval)” value ([2]; vs placebo) was 0.86 (0.61-1.22), the “Cardiovascular mortality, nonfatal myocardial infarction, or nonfatal stroke, hazard ratio (95% confidence interval)” value ([2]; vs placebo) was 0.82 (0.66-1.01) and the “Hospitalization for heart failure, hazard ratio (95% confidence interval)” value ([2]; vs placebo) was 0.56 (0.38-0.83). The “Nonfatal myocardial infarction, hazard ratio (95% confidence interval)” value ([2]; vs placebo) was 0.85 (0.61-1.19), the “Nonfatal stroke, hazard ratio (95% confidence interval)” value ([2]; vs placebo) was 0.82 (0.57-1.18) and the “Progression of albuminuria, hazard ratio (95% confidence interval)” value ([2]; vs placebo) was 0.64 (0.57-0.73). The “Regression of albuminuria, hazard ratio (95% confidence interval)” value ([2]; vs placebo) was 1.80 (1.55-2.09), the “Total mortality, hazard ratio (95% confidence interval)” value ([2]; vs placebo) was 0.92 (0.70-1.21) and the “Progression of albuminuria, hazard ratio (95% confidence interval)” value [2, 3] was 0.64.
